Assay results taken from patent US20240158446A1, “CYCLIC COMPOUND HAVING SELECTIVE INHIBITORY ACTION ON KRAS OVER HRAS AND NRAS” (CHUGAI SEIYAKU KABUSHIKI KAISHA, priority 2021, published 2024).
Like-named read-outs stand apart in the source and are kept apart here. *1 amine or outer side, *2 acyl side, *3 side chain or, on linkers, in order; H or OH if unused. Where a SMILES comes first, the peptide text is derived from it. Bridges are numbered along the chain shown (N, C = ends). [ ]: non-standard residue; d: D form. The star is where a group is joined. hPhe(3,5-F2-4-CF3) = N[C@@H](CCc1cc(F)c(C(F)(F)F)c(F)c1)C(=O)O; hPhe(3-Cl-4-CF3) = N[C@@H](CCc1ccc(C(F)(F)F)c(Cl)c1)C(=O)O; NPrPhe(4-CF3) = CCCN[C@@H](Cc1ccc(C(F)(F)F)cc1)C(=O)O; NEtPhe(4-F) = CCN[C@@H](Cc1ccc(F)cc1)C(=O)O; Pro(4-spirocPr) = O=C(O)[C@@H]1CC2(CC2)CN1; X13 = O=C([C@@H](N[*:1])C1CC(F)(F)C1)[*:2]; NMeGly(cPent) = CN[C@H](C(=O)O)C1CCCC1; Pro(4,4-Me2) = CC1(C)CN[C@H](C(=O)O)C1; cisHyp = O=C(O)[C@@H]1C[C@H](O)CN1; Hyp = O=C(O)[C@@H]1C[C@@H](O)CN1; NMeD = CN[C@@H](CC(=O)O)C(=O)O; NMeL = CN[C@@H](CC(C)C)C(=O)O; Morpholide = C1CN(*)CCO1; NMeA = CN[C@@H](C)C(=O)O; Ac5c = NC1(C(=O)O)CCCC1; Aze = O=C(O)[C@@H]1CCN1; Ac4c = NC1(C(=O)O)CCC1; NEtG = CCNCC(=O)O; Sar = CNCC(=O)O

Assays:
[1] = molecular target: GDP-bound KRAS wild-type protein (Homo sapiens, UniProt P01116); test: Binding to KRAS by surface plasmon resonance (SPR), Single Cycle Kinetics; conditions: GDP-bound KRAS wild-type protein, read-out: KRAS KD
Sequence of GDP-bound KRAS wild-type protein (P01116 whole entry): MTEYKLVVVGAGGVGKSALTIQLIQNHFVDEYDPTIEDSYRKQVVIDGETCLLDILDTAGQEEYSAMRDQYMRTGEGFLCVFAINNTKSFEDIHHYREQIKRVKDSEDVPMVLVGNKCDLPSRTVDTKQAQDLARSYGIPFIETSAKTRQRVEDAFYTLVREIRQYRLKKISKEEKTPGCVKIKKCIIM

[2] = molecular target: GDP-bound NRAS wild-type protein (Homo sapiens, UniProt P01111); test: Binding to NRAS by surface plasmon resonance (SPR), Single Cycle Kinetics; conditions: SPR, GDP-bound NRAS wild-type protein vs GDP-bound KRAS wild-type protein
Sequence of GDP-bound NRAS wild-type protein (P01111 whole entry): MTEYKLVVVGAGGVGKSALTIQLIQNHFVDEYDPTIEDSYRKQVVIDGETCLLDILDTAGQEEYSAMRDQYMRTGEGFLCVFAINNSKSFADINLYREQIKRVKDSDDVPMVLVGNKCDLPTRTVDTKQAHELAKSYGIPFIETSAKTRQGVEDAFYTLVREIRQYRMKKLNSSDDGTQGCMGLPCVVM

[3] = molecular target: GDP-bound HRAS wild-type protein (Homo sapiens, UniProt P01112); test: Binding to HRAS by surface plasmon resonance (SPR), Single Cycle Kinetics; conditions: SPR, GDP-bound HRAS wild-type protein vs GDP-bound KRAS wild-type protein
Sequence of GDP-bound HRAS wild-type protein (P01112 whole entry): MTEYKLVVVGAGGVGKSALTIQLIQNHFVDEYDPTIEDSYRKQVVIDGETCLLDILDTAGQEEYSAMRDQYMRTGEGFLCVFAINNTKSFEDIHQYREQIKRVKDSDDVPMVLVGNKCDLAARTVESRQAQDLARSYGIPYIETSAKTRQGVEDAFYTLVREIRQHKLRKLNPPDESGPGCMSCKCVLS

[4] = SPR Single Cycle Kinetics, 1:1 binding model

Kd [1, 4] [nM]	Kd ([1]; SPR, Single Cycle Kinetics) [nM]	Compound	NRAS/KRAS (ratio of KD value with respect to NRAS to KD value with respect to KRAS) [2]	HRAS/KRAS (ratio of KD value with respect to HRAS to KD value with respect to KRAS) [3]	NRAS/KRAS (ratio of KD value for NRAS to KD value for KRAS) [2]	HRAS/KRAS (ratio of KD value for HRAS to KD value for KRAS) [3]
0.16	–	CC[C@H](C)[C@@H]1NC(=O)[C@H](CC(C)C)N(C)C(=O)C[C@@H](C(=O)N2CCOCC2)N(C)C(=O)[C@H](C2CCCC2)N(C)C(=O)C2(CC2)NC(=O)[C@@H]2CCCN2C(=O)[C@H](CCc2cc(F)c(C(F)(F)F)c(F)c2)NC(=O)CN(C)C(=O)[C@H](Cc2ccc(C(F)(F)F)cc2)N2CCCC[C@@H](C2=O)N(C)C(=O)CN(C)C1=O [PP0559]	B (a compound having 3 or more and less than 10 is denoted as B)	B (a compound having 3 or more and less than 10 is denoted as B)	–	–
0.52	–	CCCN1C(=O)CN(C)C(=O)CN(CC)C(=O)[C@H]([C@@H](C)CC)NC(=O)[C@H](CC(C)C)N(C)C(=O)C[C@@H](C(=O)N2CCOCC2)N(C)C(=O)[C@H](C2CCCC2)N(C)C(=O)C2(CCCC2)NC(=O)[C@@H]2CC3(CC3)CN2C(=O)[C@H](CCc2ccc(C(F)(F)F)c(Cl)c2)NC(=O)CN(C)C(=O)[C@@H]1Cc1ccc(C(F)(F)F)cc1 [PP0295] ([NMeL]I[NEtG][Sar][NPrPhe(4-CF3)][Sar][hPhe(3-Cl-4-CF3)][Pro(4-spirocPr)][Ac5c][NMeGly(cPent)][NMeD]-Morpholide; lactam N-11)	–	–	B (a compound having 3 or more and less than 10 is denoted as B)	C (A compound having a KD ratio of 0.1 or more and less than 3 is denoted as C)
–	0.24	CCO[C@@H]1C[C@H]2C(=O)NC3(CCCC3)C(=O)N(C)[C@@H](C3CCCC3)C(=O)N(C)[C@H](C)CC(=O)N(C)[C@@H](CC(C)C)C(=O)N[C@@H]([C@@H](C)CC)C(=O)N(C)CC(=O)N(C)[C@H]3C/C=C\CCN(C3=O)[C@@H](Cc3ccc(C(F)(F)F)cc3)C(=O)N(C)CC(=O)N[C@@H](CCc3cc(F)c(C(F)(F)F)c(F)c3)C(=O)N2C1 [PP1096]	–	–	B (a compound having 3 or more and less than 10 is denoted as B)	B (a compound having 3 or more and less than 10 is denoted as B)
–	2.6	CCO[C@@H]1C[C@H]2C(=O)NC3(CCC3)C(=O)N(C)[C@@H](C3CCCC3)C(=O)N(C)[C@H](C(=O)N(C)C)CC(=O)N(C)[C@@H](CC)C(=O)N[C@@H]([C@@H](C)CC)C(=O)N3CCSC[C@H]3C(=O)N(C)[C@H]3C/C=C\CCN(C3=O)[C@@H](Cc3ccc(C(F)(F)F)cc3)C(=O)N(C)CC(=O)N[C@@H](CCc3cc(F)c(C(F)(F)F)c(F)c3)C(=O)N2C1 [PP1060]	–	–	A (a compound having 10 or more and less than 20 is denoted as A)	A (a compound having 10 or more and less than 20 is denoted as A)
0.2	–	CCCN1C(=O)[C@@H]2CCN2C(=O)[C@H](C)N(C)C(=O)[C@H]([C@@H](C)CC)NC(=O)[C@H](CC(C)C)N(C)C(=O)C[C@@H](C(=O)N2CCOCC2)N(C)C(=O)[C@H](C2CCCC2)N(C)C(=O)C2(CCCC2)NC(=O)[C@@H]2C[C@H](OCC)CN2C(=O)[C@H](CCc2ccc(C(F)(F)F)c(Cl)c2)NC(=O)CN(C)C(=O)[C@@H]1Cc1ccc(C(F)(F)F)cc1 [PP0242] ([NMeL]I[NMeA][Aze][NPrPhe(4-CF3)][Sar][hPhe(3-Cl-4-CF3)][cisHyp](Et)[Ac5c][NMeGly(cPent)][NMeD]-Morpholide; lactam N-11)	–	–	C (A compound having a KD ratio of 0.1 or more and less than 3 is denoted as C)	C (A compound having a KD ratio of 0.1 or more and less than 3 is denoted as C)
0.062	–	CC[C@H](C)[C@@H]1NC(=O)[C@H](C)N(C)C(=O)C[C@@H](C(=O)N2CCOCC2)N(C)C(=O)[C@H](C2CCCC2)N(C)C(=O)C2(CCCC2)NC(=O)[C@@H]2CCCN2C(=O)[C@H](CCc2cc(F)c(C(F)(F)F)c(F)c2)NC(=O)CN(C)C(=O)[C@H](Cc2ccc(C(F)(F)F)cc2)N2CCCC[C@@H](C2=O)N(C)C(=O)CN(C)C1=O [PP0549]	C (A compound having a KD ratio of 0.1 or more and less than 3 is denoted as C)	B (a compound having 3 or more and less than 10 is denoted as B)	–	–
–	0.055	CCO[C@@H]1C[C@H]2C(=O)NC3(CCC3)C(=O)N(C)[C@@H](C3CCCC3)C(=O)N(C)[C@H](C(=O)N(C)C)CC(=O)N(C)[C@@H](CC)C(=O)N[C@@H]([C@@H](C)CC)C(=O)N(C)CC(=O)N(C)[C@H]3C/C=C\CCN(C3=O)[C@@H](Cc3ccc(C(F)(F)F)cc3)C(=O)N(C)CC(=O)N[C@@H](CCc3cc(F)c(C(F)(F)F)c(F)c3)C(=O)N2C1 [PP0824, (2S,8S,12R,14S,20S,23S,27S,30S,36S,38Z)-20-cyclopentyl-8-[2-[3,5-difluoro-4-(trifluoromethyl)phenyl]ethyl]-12-ethoxy-27-ethyl-N,N,4,19,22,26,32,35-octamethyl-30-[(1S)-1-methylpropyl]-3,6,9,15,18,21,25,28,31,34,42-undecaoxo-2-[[4-(trifluoromethyl)phenyl]methyl]spiro[1,4,7,10,16,19,22,26,29,32,35-undecazatricyclo[34.5.1.0^10,14]dotetracont-38-ene-17,1′-cyclobutane]-23-carboxamide]	–	–	A (a compound having 10 or more and less than 20 is denoted as A)	A (a compound having 10 or more and less than 20 is denoted as A)
0.017	–	CCCN1C(=O)CN(C)C(=O)CNC(=O)[C@H]([C@@H](C)CC)NC(=O)[C@H](CC(C)C)N(C)C(=O)C[C@@H](C(=O)N(C)C)N(C)C(=O)[C@H](C2CCCC2)N(C)C(=O)C2(CCC2)NC(=O)[C@@H]2C[C@@H](OCC)CN2C(=O)[C@H](CCc2ccc(C(F)(F)F)c(Cl)c2)NC(=O)CN(C)C(=O)[C@@H]1Cc1ccc(C(F)(F)F)cc1 [PP0422] ([NMeL]IG[Sar][NPrPhe(4-CF3)][Sar][hPhe(3-Cl-4-CF3)][Hyp](Et)[Ac4c][NMeGly(cPent)][NMeD]-NMe2; lactam N-11)	B (a compound having 3 or more and less than 10 is denoted as B)	B (a compound having 3 or more and less than 10 is denoted as B)	–	–
–	0.88	CCO[C@@H]1C[C@H]2C(=O)NC3(CCC3)C(=O)N(C)[C@@H](C3CCCC3)C(=O)N(CC)[C@H](C(=O)N(C)C)CC(=O)N(C)[C@@H](CC)C(=O)N[C@@H]([C@@H](C)CC)C(=O)N(C)CC(=O)N(C)[C@H]3C/C=C\CCN(C3=O)[C@@H](Cc3ccc(C(F)(F)F)cc3)C(=O)N(C)CC(=O)N[C@@H](CCc3cc(F)c(C(F)(F)F)c(F)c3)C(=O)N2C1 [PP0980]	–	–	A (a compound having 10 or more and less than 20 is denoted as A)	B (a compound having 3 or more and less than 10 is denoted as B)
0.6	–	CCCN1C(=O)CN(C)C(=O)[C@@H]2CCN2C(=O)[C@H](C2CC(F)(F)C2)NC(=O)[C@H](CC(C)C)N(C)C(=O)C[C@@H](C(=O)N2CCOCC2)N(C)C(=O)[C@H](C2CCCC2)N(C)C(=O)C2(CCCC2)NC(=O)[C@@H]2CCCN2C(=O)[C@H](CCc2cc(F)c(C(F)(F)F)c(F)c2)NC(=O)CN(C)C(=O)[C@@H]1Cc1ccc(C(F)(F)F)cc1 [PP0786] ([NMeL][X13][Aze][Sar][NPrPhe(4-CF3)][Sar][hPhe(3,5-F2-4-CF3)]P[Ac5c][NMeGly(cPent)][NMeD]-Morpholide; lactam N-11)	B (a compound having 3 or more and less than 10 is denoted as B)	B (a compound having 3 or more and less than 10 is denoted as B)	–	–
0.073	–	CCCN1C(=O)[C@@H]2CCN2C(=O)[C@H](C)N(C)C(=O)[C@H]([C@@H](C)CC)NC(=O)[C@H](CC(C)C)N(C)C(=O)C[C@@H](C(=O)N2CCOCC2)N(C)C(=O)[C@H](C2CCCC2)N(C)C(=O)C2(CCCC2)NC(=O)[C@@H]2CC(C)(C)CN2C(=O)[C@H](CCc2ccc(C(F)(F)F)c(Cl)c2)NC(=O)CN(C)C(=O)[C@@H]1Cc1ccc(C(F)(F)F)cc1 [PP0454] ([NMeL]I[NMeA][Aze][NPrPhe(4-CF3)][Sar][hPhe(3-Cl-4-CF3)][Pro(4,4-Me2)][Ac5c][NMeGly(cPent)][NMeD]-Morpholide; lactam N-11)	C (A compound having a KD ratio of 0.1 or more and less than 3 is denoted as C)	C (A compound having a KD ratio of 0.1 or more and less than 3 is denoted as C)	–	–
–	1.7	CC[C@H](C)[C@@H]1NC(=O)[C@H](CC(C)C)N(C)C(=O)C[C@@H](C(=O)N2CCOCC2)N(C)C(=O)[C@H](C2CCCC2)N(C)C(=O)C2(CCC2)NC(=O)[C@@H]2C[C@@H](C(F)(F)F)CN2C(=O)[C@H](CCc2cc(F)c(C(F)(F)F)c(F)c2)NC(=O)CN(C)C(=O)[C@H](Cc2ccc(C(F)(F)F)cc2)N2CCCCC[C@@H](C2=O)N(C)C(=O)CN(C)C1=O [PP0818]	–	–	B (a compound having 3 or more and less than 10 is denoted as B)	B (a compound having 3 or more and less than 10 is denoted as B)
0.25	–	CC[C@H](C)[C@@H]1NC(=O)[C@H](CC(C)C)N(C)C(=O)C[C@@H](C(=O)N2CCOCC2)N(C)C(=O)[C@H](C2CCCC2)N(C)C(=O)C2(CCCC2)NC(=O)[C@@H]2CCCN2C(=O)[C@H](CCc2ccc(C(F)(F)F)c(Cl)c2)NC(=O)CN(C)C(=O)[C@H](Cc2ccc(F)cc2)N(CC)C(=O)CN(C)C(=O)CN(C)C1=O [PP0213] ([NMeL]I[Sar][Sar][NEtPhe(4-F)][Sar][hPhe(3-Cl-4-CF3)]P[Ac5c][NMeGly(cPent)][NMeD]-Morpholide; lactam N-11)	–	–	C (A compound having a KD ratio of 0.1 or more and less than 3 is denoted as C)	C (A compound having a KD ratio of 0.1 or more and less than 3 is denoted as C)
